Reference: patent US20230390406A1, “Star Polymer Drug Conjugates” (Vaccitech North America, Inc., priority 2020, published 2023)
Where a SMILES comes first, the peptide text is derived from it.

Legend:
[1] = Particle / hydrodynamic size (Rh, Dh) by dynamic light scattering; type: physicochemical
Protocol: Samples were suspended at 0.5 mg/mL in PBS pH 7.4 and particle size was determined using dynamic light scattering (Malvern ZetaSizer Ultra).

[2] = Turbidity (OD 490 nm) / solubility in PBS buffer at different pH; type: physicochemical
[3] = tested on: Interferon-gamma-induced protein 10 (IP-10); assay: Serum IP-10 (ELISA) 4 hours after intratumoral injection (tolerability); type: in vivo, C57BL/6 mice; details: 4 hours after 7 nmol IT
Protocol: (§1) Tumor size was measured by digital calipers for up to 30 days after tumor implantation (FIG. 12 B & C). To assess acute toxicity, mice were bled 4 hours after treatment, and blood IP-10 concentration was assessed by ELISA (FIG. 12D).
(§2) To further assess the impact of linkage on efficacy and tolerability in vivo, select compositions of the Compound listed in Table 9 were evaluated in tumor-bearing mice (FIG. 12). The study design is shown in (FIG. 12A). […] Tumors were allowed to grow until all mice in the study had palpable tumors. On day 11, mice were treated with a single intratumoral (IT) injection of 7 nmol of STINGa (diABZI) as either Compound 56, Compound 94, Compound 95, Compound 96 or Compound 97 in PBS. As a control, a group of mice was treated with the formulation vehicle (7% DMSO in PBS). Tumors were measured biweekly to track tumor growth after treatment. Tolerability was assessed by measuring the amount of Interferon-gamma-induced protein 10 (IP-10) in the serum of animals 4 hours after intratumoral injection.

[4] = tested on: MC38 tumors; assay: MC38 tumor model, single intratumoral injection of 7 nmol STINGa (diABZI); type: in vivo, C57BL/6 mice; details: 7 nmol STINGa IT day 11, versus vehicle / untreated
Protocol: as §1, §2

[5] = tested on: mouse plasma enzymes; assay: Stability of AMC-peptides in mouse plasma (HPLC, 350 nm); type: in vitro ADME; details: up to 6 hrs
Protocol: Peptide linker stock solutions (10 mM in DMSO) are diluted to 1 mM and then incubated with mouse plasma; aliquots are removed, blood proteins are precipitated with cold acetonitrile, pelleted with centrifugation, and the supernatant analyzed by HPLC.
(§3) A series of peptide-based small molecules were screened in vitro to characterize their lability in human cathepsin B and mouse plasma enzymes. The screening protocol was adapted from literatures^1,2 and is shown below in FIGS. 31 and 32. In short, a small library of peptides conjugated to 7-amino-4-methylcoumarin (AMC-peptides) were synthesized by standard solid-phase peptide synthesis (SPPS) by Genscript (Piscataway, NJ), as summarized in the Table 18. They were first dissolved in DMSO as 10 mM stock solution and then incubated in the presence of PBS buffer (Gibco, 10010-031), cathepsin B (Sino Biological, protein human recombinant), and mouse plasma (BioIVT, C57BL/6 li-hep pooled, female). Substrates of either cathepsin B or plasma enzymes (and not PBS) afforded cleavage of the peptide-AMC bond. The resultant free AMC elutes at a different time from the parent AMC-conjugated peptides on the HPLC, thereby the linker degradation was monitored and quantified over time (i.e., 5 min, 1 hr and 6 hrs). PBS buffer solution was used as the matrix for the negative control. Cleavage of cathepsin B substrate Ill (Millipore Sigma, 219392) served as the positive control.
(§4) The stability of the analyte peptide was determined by the comparing the area-under-curve (AUC) of analyte peaks at 350 nm following formula: […]

[6] = target: T1, human cathepsin B (Homo sapiens, UniProt P07858); assay: Cleavage of AMC-peptides by cathepsin B (HPLC, 350 nm); type: biochemical; details: pH 5, 37° C., up to 6 hrs
T1 construct: purchased Sino Biological
Protocol: as §3, §4

[7] = tested on: CT26 tumors; assay: CT26 tumor model, single intratumoral injection of 35 nmol STINGa; type: in vivo, BALB/c mice; details: 35 nmol STINGa IT, versus vehicle or free STINGa
Protocol: Tumor size was measured by digital calipers (FIG. 11B) and survival (FIG. 11C) were assessed up to 80 days after tumor implantation.
To assess the impact of linkage on efficacy in vivo, select compositions were tested in tumor-bearing mice (FIG. 11). The study design is shown in (FIG. 11A). BALB/c mice were implanted subcutaneously with 10^5 cells of the syngeneic tumor line CT26 on day 0. Tumors were allowed to grow until all mice in the study had palpable tumors. On day 12, mice were treated with a single intratumoral (IT) injection of 35 nmol of the STINGa as either (i) Compound 56 (amide linkage); (ii) Compound 94 hydrazone (Hz) linkage; or (iii) the free STINGa. An additional group of mice was treated with the formulation vehicle (7% DMSO in PBS) as a negative control. Tumors were measured biweekly to track tumor growth after treatment.

Compound	Rh (nm) at pH 7.4 [1]	stability in mouse plasma [5]	stability / cleavage in the presence of cathepsin B [6]	also measured
PAMAM-g-poly[(HPMA-co-Ma-b-Ala-2BXy)-b-(HPMA-co-Ma-propyl-NH2]-Pg [Compound 80]	12.4 nm			Turbidity at pH 7.4 [2]: 0.043
N3-p[(HPMA)-co-(MA-b-Ala-cHz-HA-diABZI)]-Pg [Compound 95]	7.3 nm			serum IP-10 level compared to free STINGa [3]: lower; tumor control [4]: improved tumor control
CCC(NC(=O)[C@H](CO)NC(=O)[C@H](CCCCNC(C)=O)NC(=O)[C@H](CO)NC(=O)CCNC(C)=O)C(=O)Nc1ccc2c(C)cc(=O)oc2c1 (some centres unmarked) [Compound AK, Ac-A′SK(Ac) SB-AMC] (HELM PEPTIDE1{[ac].[bAla].S.K.S.[CCC(N[*:1])C(=O)[*:2]].[Cc1cc(=O)oc2cc(N[*:1])ccc12]}|PEPTIDE2{[ac]}$PEPTIDE1,PEPTIDE2,4:R3-1:R2$$$V2.0)		significant stability	readily cleaved	
PAMAM-g-poly[(HPMA-co-Ma-b-Ala-2BXy)-b-HPMA]-Pg [Compound 78]	12.9 nm			Turbidity at pH 7.4 [2]: 0.041
N3-p[(HPMA)-co-(MA-b-Ala-Hz-HA-diABZI)]-Pg [Compound 94]	10.0 nm			serum IP-10 level compared to free STINGa [3]: similar; tumor control [4]: improved tumor control; survival [7]: improved; tumor control / tumor growth [7]: improved tumor control
N3-poly(HPMA-co-Ma-b-Ala-2BXy-co-Ma-b-Ala-COOH)-Pg [Compound 48]				Rh (nm) at pH 6.5 [1]: 48.0 nm; Turbidity at pH 6.5 [2]: Aggregate; Turbidity at pH 7.4 [2]: 0.043
CCCCC(NC(=O)[C@@H](NC(=O)CCNC(C)=O)C(C)C)C(=O)Nc1ccc2c(C)cc(=O)oc2c1 (some centres unmarked) [AM, Ac-A′VnL-AMC] (HELM PEPTIDE1{[ac].[bAla].V.[CCCCC(N[*:1])C(=O)[*:2]].[Cc1cc(=O)oc2cc(N[*:1])ccc12]}$$$$V2.0)		metabolized quickly	metabolized quickly	
N3-poly[(HPMA-co-Ma-b-Ala-2BXy)-b-(HPMA-co-Ma-propyl-NH2)]-Pg [Compound 68]	6.5 nm			Rh (nm) at pH 6.5 [1]: 5.6 nm
N3-poly(HPMA-co-Ma-b-Ala-diABZI)-Pg [Compound 56]	(aggregate)			tumor control [4]: not; survival [7]: comparable to the mice that received the vehicle; tumor control / tumor growth [7]: comparable to the mice that received the vehicle
N3-poly(HPMA-co-Ma-b-Ala-2BXy-co-Ma-b-Ala-dimethylethylenediamine)-Pg [Compound 52]				Rh (nm) at pH 6.5 [1]: 4.1 nm
N3-poly[(HPMA-co-Ma-b-Ala-2BXy)-b-HPMA]-Pg [Compound 62]	6.6 nm			Rh (nm) at pH 6.5 [1]: 6.9 nm; Turbidity at pH 6.5 [2]: 0.039; Turbidity at pH 7.4 [2]: 0.039
CCC(NC(=O)[C@@H](NC(=O)[C@@H]1CCCN1C(=O)[C@H](CO)NC(=O)CCNC(C)=O)C(C)C)C(=O)Nc1ccc2c(C)cc(=O)oc2c1 (some centres unmarked) [AI, Ac-A′SPVB-AMC] (HELM PEPTIDE1{[ac].[bAla].S.P.V.[CCC(N[*:1])C(=O)[*:2]].[Cc1cc(=O)oc2cc(N[*:1])ccc12]}$$$$V2.0)		metabolized quickly	metabolized quickly	
N3-p[(HPMA)-co-(MA-b-Ala-VZ-PAB-diABZI)]-Pg [Compound 96]	26.9 nm			serum IP-10 level compared to free STINGa [3]: lower; tumor control [4]: improved tumor control
CCC(NC(=O)[C@H](CO)NC(=O)[C@H](CCCCN)NC(=O)[C@H](CO)NC(=O)CCNC(C)=O)C(=O)Nc1ccc2c(C)cc(=O)oc2c1 (some centres unmarked) [AL, Ac-A′SKSB-AMC] (HELM PEPTIDE1{[ac].[bAla].S.K.S.[CCC(N[*:1])C(=O)[*:2]].[Cc1cc(=O)oc2cc(N[*:1])ccc12]}$$$$V2.0)		significant stability	readily cleaved	
CC[C@H](NC(=O)[C@@H](NC(=O)CCNC(C)=O)C(C)C)C(=O)Nc1ccc2c(C)cc(=O)oc2c1 [Compound AH, Ac-A′VB-AMC] (HELM PEPTIDE1{[ac].[bAla].V.[Abu].[Cc1cc(=O)oc2cc(N[*:1])ccc12]}$$$$V2.0)		metabolized quickly	metabolized quickly	
N3-p[(HPMA)-co-(MA-b-Ala-PEG4-VZ-PAB-diABZI)]-Pg [Compound 97]	7.6 nm			serum IP-10 level compared to free STINGa [3]: lower; tumor control [4]: improved tumor control
CCCC[C@H](NC(=O)[C@H](CO)NC(=O)[C@H](CCCCNC(C)=O)NC(=O)[C@H](CO)NC(=O)CCNC(C)=O)C(=O)Nc1ccc2c(C)cc(=O)oc2c1 [AO, Ac-A′SK(Ac) SnL-AMC] (HELM PEPTIDE1{[ac].[bAla].S.K.S.[Nle].[Cc1cc(=O)oc2cc(N[*:1])ccc12]}|PEPTIDE2{[ac]}$PEPTIDE1,PEPTIDE2,4:R3-1:R2$$$V2.0)		significant stability	readily cleaved	
CCCC[C@H](NC(=O)[C@@H](NC(=O)[C@@H]1CCCN1C(=O)[C@H](CO)NC(=O)CCNC(C)=O)C(C)C)C(=O)Nc1ccc2c(C)cc(=O)oc2c1 [AN, Ac-A′SPVnL-AMC] (HELM PEPTIDE1{[ac].[bAla].S.P.V.[Nle].[Cc1cc(=O)oc2cc(N[*:1])ccc12]}$$$$V2.0)		metabolized quickly	metabolized quickly	
CCC(NC(=O)[C@@H](NC(=O)[C@H](CCCCNC(C)=O)NC(=O)[C@H](CO)NC(=O)CCNC(C)=O)C(C)C)C(=O)Nc1ccc2c(C)cc(=O)oc2c1 (some centres unmarked) [Compound AJ, Ac-A′SK(Ac) VB-AMC] (HELM PEPTIDE1{[ac].[bAla].S.K.V.[CCC(N[*:1])C(=O)[*:2]].[Cc1cc(=O)oc2cc(N[*:1])ccc12]}|PEPTIDE2{[ac]}$PEPTIDE1,PEPTIDE2,4:R3-1:R2$$$V2.0)		relatively stable	relatively stable	
CCCCC(NC(=O)[C@H](CO)NC(=O)[C@H](CCCCN)NC(=O)[C@H](CO)NC(=O)CCNC(C)=O)C(=O)Nc1ccc2c(C)cc(=O)oc2c1 (some centres unmarked) [AP, Ac-A′SKSnL-AMC] (HELM PEPTIDE1{[ac].[bAla].S.K.S.[CCCCC(N[*:1])C(=O)[*:2]].[Cc1cc(=O)oc2cc(N[*:1])ccc12]}$$$$V2.0)		significant stability	readily cleaved	
